Laboratory results reported in ChEMBL document CHEMBL4261617, “Design and synthesis of a novel series of non-nucleoside HIV-1 inhibitors bearing pyrimidine and N-substituted aromatic piperazine” (Bioorg Med Chem Lett, 2018).
pEC50, pIC50: −log10 of the molar value.

Legend:
[1] = test system: Human immunodeficiency virus 1; test: Antiviral activity against wild-type HIV1 3B infected in human MT4 cells assessed as protection against virus-induced cytopathic effect after 4 days by MTT assay; type: functional, organism-based; conditions: Human immunodeficiency virus 1, 3B, MT4, 96 h
[2] = test system: Human immunodeficiency virus 2; test: Antiviral activity against HIV2 ROD infected in human MT4 cells assessed as protection against virus-induced cytopathic effect after 4 days by MTT assay; type: functional, organism-based; conditions: Human immunodeficiency virus 2, ISOLATE ROD, MT4, 96 h
[3] = Cytotoxicity against human MT4 cells assessed as reduction in cell viability after 4 days by MTT assay; type: cell-based
[4] = Selectivity index, ratio of CC50 for human MT4 cells to EC50 for wild-type HIV1 3B infected in human MT4 cells; type: toxicity, cell-based; conditions: MT4 cells infected with wild-type HIV1 3B, read-out: Ratio CC50/EC50
[5] = test system: Human immunodeficiency virus 1; test: Antiviral activity against HIV1 RES056 harboring K103N/Y181C double mutant infected in human MT4 cells assessed as protection against virus-induced cytopathic effect after 4 days by MTT assay; type: functional, organism-based; conditions: Human immunodeficiency virus 1, RES056, MT4, 96 h
[6] = target: Human immunodeficiency virus type 1 reverse transcriptase (Human immunodeficiency virus 1, UniProt Q72547); test: Inhibition of recombinant wild-type HIV1 GST-fused reverse transcriptase p66/p51 RNA-dependent DNA polymerase activity expressed in Escherichia coli assessed as reduction in biotin-dUTP incorporation using poly(rA)/oligo(dT)16 as template/primer after 40 mins by PicoGreen dye based spectrofluorometric analysis
[7] = Solubility of the compound in DMSO at 125 ug/ml; type: physicochemical

CCOC(=O)c1cnc(N2CCN(Cc3ccccc3C(=O)OC)CC2)nc1Oc1c(C)cc(-c2ccc(C#N)cc2)cc1C
pEC50 [1]: < 3.90 | pEC50 [2]: < 3.90 | CC50 at 96 h [3]: > 125 µM | selectivity ratio [4]: 1

CCOC(=O)c1cnc(N2CCN(Cc3ccc(F)cc3)CC2)nc1Oc1c(C)cc(-c2ccc(C#N)cc2)cc1C
pEC50 [1]: ≤ 3.92 | pEC50 [5]: < 3.93 | pEC50 [2]: < 3.93 | CC50 at 96 h [3]: > 118 µM | selectivity ratio [4]: 1 | pIC50 [6]: < 3.92 | solubility [7]: Insoluble

CCOC(=O)c1cnc(N2CCN(Cc3ccc(S(N)(=O)=O)cc3)CC2)nc1Oc1c(C)cc(-c2ccc(C#N)cc2)cc1C
pEC50 [1]: ≤ 4.60 | pEC50 [5]: < 5.10 | pEC50 [2]: < 5.10 | CC50 at 96 h [3]: ≥ 7.93 µM | selectivity ratio [4]: 1 | pIC50 [6]: 4.20 | solubility [7]: Insoluble

CCOC(=O)c1cnc(N2CCN(Cc3ccc(S(C)(=O)=O)cc3)CC2)nc1Oc1c(C)cc(-c2ccc(C#N)cc2)cc1C
pEC50 [1]: < 3.90 | pEC50 [2]: < 3.90 | CC50 at 96 h [3]: > 125 µM | selectivity ratio [4]: 1

CCOC(=O)c1cnc(N2CCN(Cc3ccccc3F)CC2)nc1Oc1c(C)cc(-c2ccc(C#N)cc2)cc1C
pEC50 [1]: < 3.90 | pEC50 [2]: < 3.90 | CC50 at 96 h [3]: > 125 µM | selectivity ratio [4]: 1

CCOC(=O)c1cnc(N2CCN(Cc3cccc(Br)c3)CC2)nc1Oc1c(C)cc(-c2ccc(C#N)cc2)cc1C
pEC50 [1]: < 3.90 | pEC50 [2]: < 3.90 | CC50 at 96 h [3]: > 125 µM | selectivity ratio [4]: 1

CCOC(=O)c1cnc(N2CCN(Cc3cccc(C(N)=O)c3)CC2)nc1Oc1c(C)cc(-c2ccc(C#N)cc2)cc1C
pEC50 [1]: 5.47 | pEC50 [5]: < 4.83 | pEC50 [2]: < 4.83 | CC50 at 96 h [3]: 14.8 µM | selectivity ratio [4]: 4 | pIC50 [6]: ≤ 4.03 | solubility [7]: Insoluble

CCOC(=O)c1cnc(N2CCN(Cc3cccc(C(F)(F)F)c3)CC2)nc1Oc1c(C)cc(-c2ccc(C#N)cc2)cc1C
pEC50 [1]: < 3.90 | pEC50 [2]: < 3.90 | CC50 at 96 h [3]: > 125 µM | selectivity ratio [4]: 1

CCOC(=O)c1cnc(N2CCN(Cc3cc(C)cc(C)c3)CC2)nc1Oc1c(C)cc(-c2ccc(C#N)cc2)cc1C
pEC50 [1]: < 3.90 | pEC50 [2]: < 3.90 | CC50 at 96 h [3]: > 125 µM | selectivity ratio [4]: 1

CCOC(=O)c1cnc(N2CCN(Cc3ccccc3[N+](=O)[O-])CC2)nc1Oc1c(C)cc(-c2ccc(C#N)cc2)cc1C
pEC50 [1]: < 4.10 | pEC50 [2]: < 4.10 | CC50 at 96 h [3]: ≥ 78.7 µM | selectivity ratio [4]: 1

CCOC(=O)c1cnc(N2CCN(Cc3cccc(C#N)c3)CC2)nc1Oc1c(C)cc(-c2ccc(C#N)cc2)cc1C
pEC50 [1]: < 3.90 | pEC50 [2]: < 3.90 | CC50 at 96 h [3]: > 125 µM | selectivity ratio [4]: 1

CCOC(=O)c1cnc(N2CCN(Cc3cccc(C(=O)OC)c3)CC2)nc1Oc1c(C)cc(-c2ccc(C#N)cc2)cc1C
pEC50 [1]: < 3.90 | pEC50 [2]: < 3.90 | CC50 at 96 h [3]: > 125 µM | selectivity ratio [4]: 1

CCOC(=O)c1cnc(N2CCN(Cc3ccc([N+](=O)[O-])cc3)CC2)nc1Oc1c(C)cc(-c2ccc(C#N)cc2)cc1C
pEC50 [1]: < 3.90 | pEC50 [2]: < 3.90 | CC50 at 96 h [3]: > 125 µM | selectivity ratio [4]: 1

CCOC(=O)c1cnc(N2CCN(Cc3cccc([N+](=O)[O-])c3)CC2)nc1Oc1c(C)cc(-c2ccc(C#N)cc2)cc1C
pEC50 [1]: 4.50 | pEC50 [5]: < 3.90 | pEC50 [2]: < 3.90 | CC50 at 96 h [3]: > 125 µM | selectivity ratio [4]: > 4 | pIC50 [6]: 3.94 | solubility [7]: Insoluble

CCOC(=O)c1cnc(N2CCN(Cc3ccc(Br)cc3)CC2)nc1Oc1c(C)cc(-c2ccc(C#N)cc2)cc1C
pEC50 [1]: < 3.90 | pEC50 [2]: < 3.90 | CC50 at 96 h [3]: > 125 µM | selectivity ratio [4]: 1

CCOC(=O)c1cnc(N2CCN(Cc3ccc(C#N)cc3)CC2)nc1Oc1c(C)cc(-c2ccc(C#N)cc2)cc1C
pEC50 [1]: < 3.90 | pEC50 [2]: < 3.90 | CC50 at 96 h [3]: > 125 µM | selectivity ratio [4]: 1

CCOC(=O)c1cnc(N2CCN(Cc3ccccc3C(F)(F)F)CC2)nc1Oc1c(C)cc(-c2ccc(C#N)cc2)cc1C
pEC50 [1]: < 3.90 | pEC50 [2]: < 3.90 | CC50 at 96 h [3]: > 125 µM | selectivity ratio [4]: 1

CCOC(=O)c1cnc(N2CCN(Cc3cccc(F)c3)CC2)nc1Oc1c(C)cc(-c2ccc(C#N)cc2)cc1C
pEC50 [1]: < 3.90 | pEC50 [2]: < 3.90 | CC50 at 96 h [3]: > 125 µM | selectivity ratio [4]: 1

CCOC(=O)c1cnc(N2CCN(Cc3cccc(OC)c3)CC2)nc1Oc1c(C)cc(-c2ccc(C#N)cc2)cc1C
pEC50 [1]: < 3.90 | pEC50 [2]: < 3.90 | CC50 at 96 h [3]: > 125 µM | selectivity ratio [4]: 1

CCOC(=O)c1ccc(CN2CCN(c3ncc(C(=O)OCC)c(Oc4c(C)cc(-c5ccc(C#N)cc5)cc4C)n3)CC2)cc1
pEC50 [1]: < 3.90 | pEC50 [2]: < 3.90 | CC50 at 96 h [3]: > 125 µM | selectivity ratio [4]: 1

CCOC(=O)c1cnc(N2CCN(Cc3cc(F)cc(F)c3)CC2)nc1Oc1c(C)cc(-c2ccc(C#N)cc2)cc1C
pEC50 [1]: < 3.90 | pEC50 [2]: < 3.90 | CC50 at 96 h [3]: > 125 µM | selectivity ratio [4]: 1

CCOC(=O)c1cnc(N2CCN(Cc3ccc(C(N)=O)cc3)CC2)nc1Oc1c(C)cc(-c2ccc(C#N)cc2)cc1C
pEC50 [1]: < 4.18 | pEC50 [5]: < 4.18 | pEC50 [2]: < 4.18 | CC50 at 96 h [3]: 66.5 µM | selectivity ratio [4]: < 1 | pIC50 [6]: ≤ 3.95 | solubility [7]: Insoluble

CCOC(=O)c1cnc(N2CCN(Cc3ccccc3Br)CC2)nc1Oc1c(C)cc(-c2ccc(C#N)cc2)cc1C
pEC50 [1]: < 3.90 | pEC50 [2]: < 3.90 | CC50 at 96 h [3]: > 125 µM | selectivity ratio [4]: 1

CCOC(=O)c1cnc(N2CCN(Cc3ccccc3C#N)CC2)nc1Oc1c(C)cc(-c2ccc(C#N)cc2)cc1C
pEC50 [1]: < 3.90 | pEC50 [2]: < 3.90 | CC50 at 96 h [3]: > 125 µM | selectivity ratio [4]: 1

CCOC(=O)c1cnc(N2CCN(Cc3ccc(C(F)(F)F)cc3)CC2)nc1Oc1c(C)cc(-c2ccc(C#N)cc2)cc1C
pEC50 [1]: < 3.90 | pEC50 [2]: < 3.90 | CC50 at 96 h [3]: > 125 µM | selectivity ratio [4]: 1

CCOC(=O)c1cnc(N2CCN(Cc3ccc(C(=O)OC)cc3)CC2)nc1Oc1c(C)cc(-c2ccc(C#N)cc2)cc1C
pEC50 [1]: < 3.90 | pEC50 [2]: < 3.90 | CC50 at 96 h [3]: > 125 µM | selectivity ratio [4]: 1

Cc1cc(C#N)cc(C)c1Oc1nc(Nc2ccc(C#N)cc2)nc(N)c1Br [ETRAVIRINE]
pEC50 [1]: 8.66 | pEC50 [5]: 7.82 | CC50 at 96 h [3]: > 2 µM

Cc1ccnc2c1NC(=O)c1cccnc1N2C1CC1 [NEVIRAPINE]
pEC50 [1]: 7.00 | pEC50 [5]: < 5.40 | CC50 at 96 h [3]: > 4 µM
